# Experimental data published in patent US11649238B2, “Substituted pyrazolo[1,5-a]pyrimidines as PI4K inhibitors” (GLAXOSMITHKLINE INTELLECTUAL PROPERTY DEVELOPMENT LIMITED, priority 2018, dated 2023).
# Experiments:
# [1] = molecular target: T1, human PI4KIII-beta 13-828 (D316-330) (Homo sapiens, UniProt Q9UBF8); assay: PI4 KB Activity Assay (ADP-GLO Kinase assay); format: biochemical; conditions: 1 mM ATP, 60 μM phosphatidylinositol, 3 hours at room temperature; read-out: mean pIC50 (converted)
# T1 construct: human PI4KIII-beta 13-828 (D316-330)
# Method: The in vitro inhibition of human PI4KIII-beta 13-828 (D316-330) activity was determined by using the ADP-GLO Kinase assay kit from Promega. Inhibitors were dissolved in 100% DMSO at a concentration of 1 mM. Dilutions were prepared in 100% DMSO using a 1 in 3 serial step dilution. A 60 nL stamp from an 11-point titration was transferred to a white low volume 384 well Greiner assay plate ensuring a final DMSO concentration of 1% across the plate and a top final concentration of inhibitor of 10 μM. The PI4KIII-beta assay contained 25 mM Hepes pH 7.5 (NaOH), 10 mM MgCl2, 0.5 mM EGTA, 0.1% Triton X-100, 2 mM TCEP, and 0.1 mg/ml BSA, 1 mM ATP, 60 μM phosphatidylinositol, and 1.5 nM human PI4K-beta 13-828 (D316-330) in a total volume of 6 μL. The assay was initiated with the addition of enzyme, covered, and incubated at room temperature for 3 hours. The assays were stopped with the addition of 6 μl ADP-GLO Reagent containing 0.1% CHAPS to deplete the unconsumed ATP. The plates were incubated at room temperature for 60 min and then 12 μl of the Kinase Detection Reagent containing 0.1% CHAPS was added to convert ADP to ATP and introduce luciferase and luciferin. After 40 min incubation at room temperature the luminescent signal was read on a BMG Labtech PHERAstar FS with the following settings; Gain 3600, Focal height 13.7 mm, measurement interval time 1 s, Settling time 0.2 s. The inhibitory effect of the PI4K-beta activity of the compounds was evaluated by the IC50 of the response relative to the high, no compound, and low, no enzyme, controls by fitting to the four parameter dose response question.
# [2] = tested on: human rhinovirus Type A Strain 16 (HRVA16) in HeLa Ohio cells; assay: Cytopathic Effect (CPE) Assay, ATP-depletion in infected HeLa Ohio cells; format: cell-based; conditions: Human rhinovirus sp., HRVA16, HeLa, 48 h, HRVA16 at MOI of 1, 33° C. for 2 days, CellTiter-Glo, read-out: mean pIC50 (converted)
# Method: c) Cytopathic Effect (CPE) Assay Protocol
# The in vitro inhibition of PI4 KB activity was determined by analysis of the inhibition of ATP-depletion in HeLa Ohio cells in response to infection with human rhinovirus Type A Strain 16 (HRVA16). ATP levels were determined using CellTiter-GLO reagent from Promega. Compounds that inhibit PI4 KB are also potent inhibitors of human rhinoviruses and are able to protect HeLa Ohio cells from CPE induced by viral infection and replication. Protected cells remain viable following viral infection and therefore have greater ATP levels.
# Compounds were dissolved in 100% DMSO to a concentration of 3 mM and subsequent dilutions were prepared in 100% DMSO using a 1:3 serial step dilution. A 0.5 μL stamp from an 10-point titration was transferred to a white 96 well Greiner tissue culture flat bottom plate (655083). A 0.5 μL stamp of 100% DMSO was stamped into columns 11 and 12 of the plate, ensuring a final assay DMSO concentration of 0.33% across the plate and a compound top final assay concentration of 10 μM.
# HeLa Ohio cells were cultured at 37° C., 5% CO2 in media (DMEM supplemented with 10% Australian origin foetal bovine serum and 2 mM glutamax). Cells were passaged when confluency reached >80%. For the assay, cells were grown to 80-90% confluency before detachment.
# Cells were detached for the assay by washing with PBS and detached using 3 mL TrypLE Express for […] at 37° C. Detached cells were mixed with 7 mL of media and centrifuged at 300 g for 5 min. The cell pellet was resuspended in 50 mL media and counted on a Beckman Coulter ViCell. Cells were diluted to 6.6×10^4 cells/mL and some of the cell volume was removed into a new tube to be used as a column 12 control. HRVA16 stock was added to the remaining cell suspension at the appropriate dilution for the virus stock to achieve an MOI of 1.
# 150 μL of the cell+virus suspension was added per well to columns 1-11 using a Multidrop Combi. 150 μL of the separate cell suspension was added per well to columns 12 using a multichannel pipette. Assay plates were sealed and incubated at 33° C., 5% CO2 for 2 days. After 2 days, assay plates were removed from the incubator and allowed to equilibrate to room temperature. 60 μL of CellTiter-Glo reagent was added to all wells using a Thermo Scientific Multidrop Combi. Plates were incubated at room temperature for 20 min before reading on an a Perkin Elmer Envision (Settings: Gripper height 2.5, Fixed measurement height (mm) 6.5, Distance between plate and detector 0, Measurement time (s) 0.1, Glow (ct2) correction factor (0%)).
# The inhibitory effect of the compounds on the PI4 KB activity was evaluated by the IC50 of the response relative to the high (no virus, column 12) and low (virus+no inhibitor, column 11) controls by fitting to a four parameter dose response equation.
# [3] = Spleen Concentration Assay; format: in vivo; conditions: male, Wistar Han, rat, intravenous, 1 mg/kg, intravenous infusion 1 mg/kg over 1 h, single male Wistar Han rat, 12 hours after the start of dosing
# Method: e) Spleen Concentration Assay Compounds 17, 18, 19, 22 and 23 were tested in this spleen accumulation assay. Compounds were administered intravenously to rats to determine what the level of the compound in the spleen would be if all of the inhaled dose was absorbed (either orally or through the lungs) and systemic circulation was exposed to the full dose. Compounds 17, 19, 22 and 23 were formulated in 2% DMSO in Kleptose (aq, 10% w/v). Compound 18 was formulated in a 5:45:50 ratio of DMSO:PEG200:water. Formulations were administered as intravenous infusions (1 mg/kg over 1 h) to a single male, Wistar Han rat. 12 hours after the start of dosing, rats were euthanised and spleens were collected. Approximately 0.5 g samples of spleen were taken and homogenised in 4 mL water. 100 μL of the resulting homogenates were prepared by protein precipitation with 300 μL of acetonitrile containing an internal standard and assayed (along with calibration standards prepared in the same manner) by reversed-phase liquid chromatography-mass spectrometry, using a heated electrospray source and operated in the positive ion multiple reaction monitoring mode. The liquid chromatography column used was a Waters Cortecs C18 2.7 μm particle size, 50×2.1 mm column at 60° C., and the mobile phase, operated as a gradient, utilised (A) 0.1% formic acid (aq) and (B) 0.1% formic acid in acetonitrile, operated at a flow rate of 1 mL/min.
# [4] = intranasal administration, cited from earlier work; for accumulation of compound in lung tissue: rat model
# T1 sequence (Q9UBF8 1-801 isoform Q9UBF8-2): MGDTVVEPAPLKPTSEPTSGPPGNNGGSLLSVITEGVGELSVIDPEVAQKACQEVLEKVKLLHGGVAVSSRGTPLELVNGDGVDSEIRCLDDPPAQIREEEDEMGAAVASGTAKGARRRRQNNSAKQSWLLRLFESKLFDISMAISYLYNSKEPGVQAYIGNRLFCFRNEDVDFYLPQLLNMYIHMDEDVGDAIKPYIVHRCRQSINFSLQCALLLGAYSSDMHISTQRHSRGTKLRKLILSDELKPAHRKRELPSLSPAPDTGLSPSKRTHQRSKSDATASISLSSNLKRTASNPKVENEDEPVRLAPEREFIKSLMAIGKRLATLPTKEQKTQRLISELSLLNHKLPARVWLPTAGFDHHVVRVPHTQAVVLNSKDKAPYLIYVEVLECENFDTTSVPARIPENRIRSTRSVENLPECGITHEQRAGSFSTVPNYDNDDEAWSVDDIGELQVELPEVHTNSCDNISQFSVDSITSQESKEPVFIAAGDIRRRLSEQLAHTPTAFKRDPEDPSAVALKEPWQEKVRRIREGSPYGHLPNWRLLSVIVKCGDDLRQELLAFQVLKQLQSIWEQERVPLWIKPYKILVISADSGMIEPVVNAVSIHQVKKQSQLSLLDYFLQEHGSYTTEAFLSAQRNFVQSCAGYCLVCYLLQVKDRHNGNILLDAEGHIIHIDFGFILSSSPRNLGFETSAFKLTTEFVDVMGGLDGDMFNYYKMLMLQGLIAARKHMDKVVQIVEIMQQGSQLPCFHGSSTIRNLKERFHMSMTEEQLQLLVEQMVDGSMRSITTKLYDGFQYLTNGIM
IC50 [1],IC50 [2],concentration at 12 h [3],Structure (SMILES),accumulation of compound in lung tissue [4],histological findings following IN dose ([4]; rat nasal cavity and lung)
≤ 3.98 nM,≤ 25.1 nM,,"COc1ccc(-c2c(C)nn3c(NCc4cccc(-c5nccn5C)c4)cc(C(C)O)nc23)cc1S(=O)(=O)CCO (single isomer, unassigned) [Compound 71, 2-((5-(5-(1-Hydroxyethyl)-2-methyl-7-((3-(1-methyl-1H-imidazol-2-yl)benzyl)amino)pyrazolo[1,5-a]pyrimidin-3-yl)-2-methoxyphenyl)sulfonyl)ethan-1-ol]",,
≤ 3.98 nM,≤ 25.1 nM,,"CCC(O)c1cc(NCc2cccc(-c3nccn3C)c2)n2nc(C)c(-c3ccc(OC)c(C(=O)N(C)C4CCOCC4)c3)c2n1 (single isomer, unassigned) [Compound 77, 5-(5-(1-Hydroxypropyl)-2-methyl-7-((3-(1-methyl-1H-imidazol-2-yl)benzyl)amino)pyrazolo[1,5-a]pyrimidin-3-yl)-2-methoxy-N-methyl-N-(tetrahydro-2H-pyran-4-yl)benzamide]",,
≤ 3.98 nM,≤ 25.1 nM,,"COc1ccc(-c2c(C)nn3c(NCc4cccc(-c5nccn5C)c4)cc(C(C)O)nc23)cc1S(=O)(=O)CCO (stereo not drawn) [Compound 2, 2-((5-(5-(1-Hydroxyethyl)-2-methyl-7-((3-(1-methyl-1H-imidazol-2-yl)benzyl)amino)pyrazolo[1,5-a]pyrimidin-3-yl)-2-methoxyphenyl)sulfonyl)ethan-1-ol]",,
≤ 3.98 nM,≤ 25.1 nM,,COc1ccc(-c2c(C)nn3c(NCc4cccc(-c5nccn5C)c4)cc(C(O)C4CC4)nc23)cc1S(=O)(=O)CCO (stereo not drawn) [Compound 4],,
≤ 3.98 nM,,< 7 ng/g,COc1ccc(-c2c(C)nn3c(NCc4cccc(-c5nccn5C)c4)cc(C(C)(C)O)nc23)cc1C(=O)N(C)C [Compound 23],,
≤ 3.98 nM,≤ 25.1 nM,,COc1ccc(-c2c(C)nn3c(NCc4cccc(-c5nccn5C)c4)cc(C(C)(C)O)nc23)cc1C(=O)N(C)CCO [Compound 26],,
≤ 3.98 nM,≤ 25.1 nM,,COc1ccc(-c2c(C)nn3c(NCc4cccc(-c5nccn5C)c4)cc(C(C)(C)O)nc23)cc1C(=O)N1CCC(C)(O)C1 (stereo not drawn) [Compound 27],,
≤ 3.98 nM,≤ 25.1 nM,,COc1ccc(-c2c(C)nn3c(NCc4cccc(-c5nccn5C)c4)cc(C(C)(C)O)nc23)cc1C(=O)N1CCCOCC1 [Compound 28],,
≤ 3.98 nM,≤ 25.1 nM,,"COc1ccc(-c2c(C)nn3c(NCc4cccc(-c5nccn5C)c4)cc(C(C)(C)O)nc23)cc1C(=O)N(C)CCCO [Compound 32, 5-(5-(2-hydroxypropan-2-yl)-2-methyl-7-((3-(1-methyl-1H-imidazol-2-yl)benzyl)amino)pyrazolo[1,5-a]pyrimidin-3-yl)-N-(3-hydroxypropyl)-2-methoxy-N-methylbenzamide]",,
≤ 3.98 nM,≤ 25.1 nM,,"CCN(CCO)C(=O)c1cc(-c2c(C)nn3c(NCc4cccc(-c5nccn5C)c4)cc(C(C)(C)O)nc23)ccc1C [Compound 38, N-ethyl-N-(2-hydroxyethyl)-5-(5-(2-hydroxypropan-2-yl)-2-methyl-7-((3-(1-methyl-1H-imidazol-2-yl)benzyl)amino)pyrazolo[1,5-a]pyrimidin-3-yl)-2-methylbenzamide]",,
≤ 3.98 nM,≤ 25.1 nM,,"Cc1ccc(-c2c(C)nn3c(NCc4cccc(-c5nccn5C)c4)cc(C(C)CO)nc23)cc1C(=O)N(C)CCCO (stereo not drawn) [Compound 54, 5-(5-(1-Hydroxypropan-2-yl)-2-methyl-7-((3-(1-methyl-1H-imidazol-2-yl)benzyl)amino)pyrazolo[1,5-a]pyrimidin-3-yl)-N-(3-hydroxypropyl)-N,2-dimethylbenzamide]",,
≤ 3.98 nM,≤ 25.1 nM,,Cc1ccc(-c2c(C)nn3c(NCc4cccc(-c5nccn5C)c4)cc(C(C)(C)O)nc23)cc1C(=O)NCCCO [Compound 60],,
≤ 3.98 nM,≤ 25.1 nM,,"Cc1ccc(-c2c(C)nn3c(NCc4cccc(-c5nccn5C)c4)cc(C4(O)CC4)nc23)cc1C(=O)N(C)CCCO [Compound 79, 5-(5-(1-Hydroxycyclopropyl)-2-methyl-7-((3-(1-methyl-1H-imidazol-2-yl)benzyl)amino)pyrazolo[1,5-a]pyrimidin-3-yl)-N-(3-hydroxypropyl)-N,2-dimethylbenzamide]",,
≤ 3.98 nM,≤ 25.1 nM,,"COc1ccc(-c2c(C)nn3c(NCc4cccc(-c5nccn5C)c4)cc(CC4CCOCC4)nc23)cc1S(=O)(=O)CCO [Compound 85, 2-((2-Methoxy-5-(2-methyl-7-((3-(1-methyl-1H-imidazol-2-yl)benzyl)amino)-5-((tetrahydro-2H-pyran-4-yl)methyl)pyrazolo[1,5-a]pyrimidin-3-yl)phenyl)sulfonyl)ethan-1-ol]",,
≤ 3.98 nM,≤ 25.1 nM,,"Cc1nn2c(NCc3cccc(-c4nccn4C)c3)cc(C(C)(C)O)nc2c1-c1cccc(C(=O)N(C)CCCO)c1 [Compound 87, 3-(5-(2-Hydroxypropan-2-yl)-2-methyl-7-((3-(1-methyl-1H-imidazol-2-yl)benzyl)amino)pyrazolo[1,5-a]pyrimidin-3-yl)-N-(3-hydroxypropyl)-N-methylbenzamide]",,
,,,Cc1cc(NCc2cccc(-n3cccc3)c2)n2nc(C)c(-c3ccc(Cl)c(C(=O)N(C)CCN(C)C)c3)c2n1 [GSK3159043A],substantial accumulation of compound in lung tissue,ulceration in the rat nasal cavity and bronchial epithelial hyperplasia in the rat lung
,,,COc1ccc(-c2c(C)nn3c(NCc4cccc(-n5cccc5)c4)cc(OCCCN(C)C)nc23)cc1S(C)(=O)=O [GSK3180404A],substantial accumulation of compound in lung tissue,
